Laboratory results taken from US10781224B2, “Bis(oxymethyl)phosphinic acid and biogenic metal salts thereof as regulators of plant growth and development” (priority 2016, dated 2020).

Assays:
rice (Diamant variety) = assay: Rice seed treatment with BHMPA salts: germinating power; assay type: in vivo
Summary of the method: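 Seeds (50 per Petri dish on two layers of filter paper) soaked 1 h in BHMPA or its Ca, Mg, Na, Co, Mn, Cu or Zn salts at 1·10^−6-1·10^−12%, with water controls. Germination energy read on day 4, germination on day 8 (wheat) or day 7 (rice, corn), as % means of four replicates. Germinating power taken as root and sprout length plus wet and dry mass per 100 seedlings.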

[1] = tested on: winter wheat (Vershin variety); assay: Winter wheat seed treatment with BHMPA salts: germination energy and germination rate; assay type: in vivo
Summary of the method: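 Corn, winter wheat and rice seeds (50 per dish, on filter paper) were soaked for 1 h in BHMPA or its metal salts at 1·10^−6-1·10^−12%, with water as control. Germination energy was read on day 4 and germination rate on day 8 for wheat and day 7 for rice and corn, following GOST 12038-84, as the mean of four replicates.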

[2] = rice seed treatment, comparison with Melaphen (Table XXXIII), solution 1 · 10^−11%
[3] = rice seeds, solution concentration 1 · 10^−6%
[4] = rice seeds, solution concentration 1 · 10^−7%
[5] = rice seeds, solution concentration 1 · 10^−8%
[6] = rice seeds, solution concentration 1 · 10^−9%
[7] = rice seeds, solution concentration 1 · 10^−10%
[8] = rice seeds, solution concentration 1 · 10^−11%
[9] = rice seeds, solution concentration 1 · 10^−12%
[10] = rice, vs control, 1·10^−11% solution
[11] = winter wheat Vershin, 1·10^−6% solution
[12] = winter wheat Vershin, 1·10^−7% solution
[13] = winter wheat Vershin, 1·10^−8% solution
[14] = winter wheat Vershin, 1·10^−9% solution
[15] = winter wheat Vershin, 1·10^−10% solution
[16] = winter wheat Vershin, 1·10^−11% solution
[17] = winter wheat Vershin, 1·10^−12% solution
[18] = winter wheat, comparative study vs Melaphen, 1·10^−9% solution

## O=P([O-])(CO)CO.[Na+] [Na-salt, Sodium BHMPA Salt]
Rice (Diamant variety); rice
  optimum concentration for treating rice seeds before sowing: 1·10^−11%
Rice (Diamant variety); [2]
  Length, root: 5.9 cm
  Length, root, + % to control: 23%
  Length, sprout: 3.4 cm
  Length, sprout, + % to control: 46%
  Mass, dry, root: 0.22 g/100 plantlings
  Mass, dry, root, + % to control: 5%
  Mass, dry, sprout: 0.26 g/100 plantlings
  Mass, dry, sprout, + % to control: 24%
  Mass, wet, root: 1.31 g/100 plantlings
  Mass, wet, root, + % to control: 34%
  Mass, wet, sprout: 2.22 g/100 plantlings
  Mass, wet, sprout, + % to control: 47%
Rice (Diamant variety); [3]
  Length, root: 5.4 cm
  Length, root, + % to control: 4%
  Length, sprout: 2.3 cm
  Length, sprout, + % to control: 9.5%
  Mass, dry, root: 0.21 g/100 plantlings
  Mass, dry, root, + % to control: 5%
  Mass, dry, sprout: 0.28 g/100 plantlings
  Mass, dry, sprout, + % to control: 8%
  Mass, wet, root: 1.06 g/100 plantlings
  Mass, wet, root, + % to control: 16.5%
  Mass, wet, sprout: 1.73 g/100 plantlings
  Mass, wet, sprout, + % to control: 5.5%
Rice (Diamant variety); [4]
  Length, root: 5.6 cm
  Length, root, + % to control: 8%
  Length, sprout: 2.4 cm
  Length, sprout, + % to control: 14%
  Mass, dry, root: 0.22 g/100 plantlings
  Mass, dry, root, + % to control: 10%
  Mass, dry, sprout: 0.30 g/100 plantlings
  Mass, dry, sprout, + % to control: 15%
  Mass, wet, root: 1.10 g/100 plantlings
  Mass, wet, root, + % to control: 21%
  Mass, wet, sprout: 1.81 g/100 plantlings
  Mass, wet, sprout, + % to control: 10%
Rice (Diamant variety); [5]
  Length, root: 5.8 cm
  Length, root, + % to control: 11.5%
  Length, sprout: 2.6 cm
  Length, sprout, + % to control: 24%
  Mass, dry, root: 0.23 g/100 plantlings
  Mass, dry, root, + % to control: 15%
  Mass, dry, sprout: 0.31 g/100 plantlings
  Mass, dry, sprout, + % to control: 19%
  Mass, wet, root: 1.14 g/100 plantlings
  Mass, wet, root, + % to control: 25%
  Mass, wet, sprout: 1.89 g/100 plantlings
  Mass, wet, sprout, + % to control: 15%
Rice (Diamant variety); [6]
  Length, root: 6.0 cm
  Length, root, + % to control: 15%
  Length, sprout: 2.8 cm
  Length, sprout, + % to control: 33%
  Mass, dry, root: 0.25 g/100 plantlings
  Mass, dry, root, + % to control: 25%
  Mass, dry, sprout: 0.33 g/100 plantlings
  Mass, dry, sprout, + % to control: 27%
  Mass, wet, root: 1.17 g/100 plantlings
  Mass, wet, root, + % to control: 28.5%
  Mass, wet, sprout: 2.00 g/100 plantlings
  Mass, wet, sprout, + % to control: 22%
Rice (Diamant variety); [7]
  Length, root: 6.3 cm
  Length, root, + % to control: 21%
  Length, sprout: 3.5 cm
  Length, sprout, + % to control: 58%
  Mass, dry, root: 0.27 g/100 plantlings
  Mass, dry, root, + % to control: 35%
  Mass, dry, sprout: 0.35 g/100 plantlings
  Mass, dry, sprout, + % to control: 35%
  Mass, wet, root: 1.26 g/100 plantlings
  Mass, wet, root, + % to control: 38%
  Mass, wet, sprout: 2.18 g/100 plantlings
  Mass, wet, sprout, + % to control: 33%
Rice (Diamant variety); [8]
  Length, root: 6.4 cm
  Length, root, + % to control: 23%
  Length, sprout: 4.0 cm
  Length, sprout, + % to control: 90%
  Mass, dry, root: 0.30 g/100 plantlings
  Mass, dry, root, + % to control: 50%
  Mass, dry, sprout: 0.39 g/100 plantlings
  Mass, dry, sprout, + % to control: 50%
  Mass, wet, root: 1.35 g/100 plantlings
  Mass, wet, root, + % to control: 48%
  Mass, wet, sprout: 2.30 g/100 plantlings
  Mass, wet, sprout, + % to control: 40%
Rice (Diamant variety); [9]
  Length, root: 6.2 cm
  Length, root, + % to control: 19%
  Length, sprout: 3.6 cm
  Length, sprout, + % to control: 71%
  Mass, dry, root: 0.26 g/100 plantlings
  Mass, dry, root, + % to control: 30%
  Mass, dry, sprout: 0.33 g/100 plantlings
  Mass, dry, sprout, + % to control: 27%
  Mass, wet, root: 1.18 g/100 plantlings
  Mass, wet, root, + % to control: 30%
  Mass, wet, sprout: 2.23 g/100 plantlings
  Mass, wet, sprout, + % to control: 36%
Rice (Diamant variety); [10]
  dry mass of the roots increased by: 50%
  dry mass of the sprouts increased by: 50%
  length of the root increased by: 23%
  length of the sprout increased by: 90%
  wet mass of the roots increased by: 48%
  wet mass of the sprouts increased by: 40%
[1]; [11]
  Germination energy: 84.4%
  Germination rate: 86.0%
[1]; [12]
  Germination energy: 86.7%
  Germination rate: 89.0%
[1]; [13]
  Germination energy: 90.2%
  Germination rate: 94.0%
[1]; [14]
  Germination energy: 92.3%
  Germination rate: 95.3%
[1]; [15]
  Germination energy: 88.4%
  Germination rate: 92.0%
[1]; [16]
  Germination energy: 85.0%
  Germination rate: 88.0%
[1]; [17]
  Germination energy: 83.2%
  Germination rate: 86.3%
[1]; [18]
  Germination energy: 87.3%
  Germination rate: 93.7%
